Read-outs that look alike come from different tables or passages of the source.
Legend:
[1] = target: kappa (h) (KOP) (agonist radioligand) (Homo sapiens, UniProt P41145); details: at the tested concentration, negative values set to zero
CYP2D6 = CYP2D6 (Homo sapiens, UniProt P10635); assay: Incubation with recombinant CYP2D6
in vitro = details: mouse, liver microsomes
[2] = target: D2L (h) (antagonist radioligand) (Homo sapiens, UniProt P14416); details: at the tested concentration; negative values set to zero
[3] = target: D2S (h) (agonist radioligand) (Homo sapiens, UniProt P14416); details: at the tested concentration; negative values set to zero
[4] = Hepatocyte stability, rat
Method: (§1) • 1. 10 mM stock solutions of test compounds and positive control compound were prepared in appropriate solvent (DMSO). • 2. In separate conical tubes, 10 mM test compound and positive controls were diluted to 100 μM by combining 198 μL of 50% acetonitrile/50% water and 2 μL of 10 mM stock. Preparation of Hepatocytes • 1. Incubation medium (William's E Medium supplemented with GlutaMAX) and hepatocyte thawing medium were placed in a 37C water bath and warmed for at least 15 minutes prior to use. • 2. A vial of cryopreserved hepatocytes was thawed by placing the vial in a 37C water bath and gently shaken for 2 minutes. After thawing was completed, the vial was cleaned with 70% ethanol and transferred to a biosafety cabinet. • 3. Using wide-bore pipette tips, hepatocytes were transferred into a 50 mL conical tube containing thawing medium. The 50 mL conical tube was placed into a centrifuge and spun at 100 g for 10 minutes. […] Using AO/PI Staining, cells were counted to determine the viable cell density. Cells were diluted with incubation medium to a working cell density of 0.5×10^6 viable cells/mL. Procedure for Stability Determination • 1. 198 μL of hepatocytes were pipetted into each well of a 96-well non-coated plate. The plate was placed in the incubator to allow the hepatocytes to warm for 10 minutes. • 2. 2 μL of the 100 μM test compound or positive control was pipetted into respective wells of the 96-well non-coated plate to start the reaction. The plate was returned to the incubator for the designed time points. • 3. The contents of the wells were removed in 25 μL aliquots at time points of 0.5, 15, 30, 60, 90 and 120 minutes. The aliquots were then mixed with 6 volumes (150 μL) of acetonitrile containing an internal standard, IS (100 nM alprazolam, 200 nM caffeine and 100 nM tolbutamide), to terminate the reaction. Samples were vortexed for 5 minutes and centrifuged for 45 minutes at 3,220 g. Aliquots of 100 μL of supernatant were diluted with 100 μL ultra-pure water, and the mixture was used for LC/MS/MS analysis. All incubations were performed in duplicate. Data Analysis
(§2) All calculations were carried out using Microsoft Excel and according to standard analysis methods that are known in the art.

CYP3A5 = CYP3A5 (Homo sapiens, UniProt P20815); assay: Incubation with recombinant CYP3A5
[5] = Hepatocyte stability, dog
Method: as §1, §2

[6] = Whole blood stability, rat; details: rat, blood; for Remaining Percentages (%) 0 min: 0 h, 1 μM
Method: Procedures for blood Stability. • A. 398 μL of blood from each species was added to an incubation plate, which was pre-warmed at 37C for 15 minutes. • B. After the pre-incubation, 2 μL of working solution (test compounds or control compounds) was spiked to 398 μL of blood to reach a final concentration of 1 μM for test compounds and 5 μM for control compounds. The final concentration of organic solvents is 0.5%. The assays were performed in duplicate. • C. The reaction samples were incubated at 37C. • D. Aliquots of 50 μL were taken from the reaction samples at 0, 15, 30, 60 and 120 minutes. The reaction was stopped by the addition of 50 μL ultrapure water and 400 μL cold acetonitrile. • E. All samples were vortexed for 10 minutes, followed by centrifugation at 3,220 g for 40 minutes to precipitate proteins. 100 μL of the supernatant was then transferred to a new plate. The supernatant was diluted with ultrapure water as needed for detection by LC-MS/MS. Sample Analysis
Samples were analyzed by LC-MS/MS to measure the concentration of the test compounds.
as §2

[7] = Hepatocyte stability, human
Method: as §1, §2

[8] = test system: haloperidol-induced catalepsy; assay: Haloperidol-induced catalepsy (bar test); assay type: in vivo, Sprague Dawley rats; details: for time spent holding bar, haloperidol-induced catalepsy: rats, haloperidol 1 mg/kg sc, Rac-THP 10, 20, 30 mg/kg, R-THP or S-THP 5, 10, 15 mg/kg ip
Method: Animals: Adult male Sprague Dawley rats (230-235 g) from Envigo were used in this study. Upon receipt, rats were group housed in ventilated cages and acclimated for one week prior to testing.
The front paws of a rat were placed then on a horizontal metal bar raised 6″ above a Plexiglas platform. Each rat underwent 3 trials of 60 seconds each. The test ended when the animal's front paws return to the platform or after 60 seconds. Rats were tested at 30 and 60 minutes after treatment.
Data were analyzed by one-way analysis of variance (ANOVA) followed by Tukey's post-hoc comparisons, where appropriate. Data are represented as mean and standard error to the mean (SEM).

[9] = test system: Cerep87 Safety Panel receptors; assay: Cerep87 Safety Panel (Eurofins), whole panel statements; assay type: binding

Chain of CYP3A5 (P20815 whole entry): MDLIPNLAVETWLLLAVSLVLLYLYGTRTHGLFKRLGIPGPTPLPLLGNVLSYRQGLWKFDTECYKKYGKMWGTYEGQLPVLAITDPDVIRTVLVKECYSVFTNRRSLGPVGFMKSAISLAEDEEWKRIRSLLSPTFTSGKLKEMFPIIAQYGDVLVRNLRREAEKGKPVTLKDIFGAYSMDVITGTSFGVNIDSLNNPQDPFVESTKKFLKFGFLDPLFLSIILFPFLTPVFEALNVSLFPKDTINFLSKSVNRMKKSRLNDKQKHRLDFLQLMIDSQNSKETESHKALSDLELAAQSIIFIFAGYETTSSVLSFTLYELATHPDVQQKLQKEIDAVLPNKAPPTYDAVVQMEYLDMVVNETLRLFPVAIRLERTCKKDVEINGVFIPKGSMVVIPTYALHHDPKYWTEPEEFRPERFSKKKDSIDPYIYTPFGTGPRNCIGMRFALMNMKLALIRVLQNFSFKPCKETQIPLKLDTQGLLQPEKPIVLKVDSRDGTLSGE
Chain of kappa (h) (KOP) (agonist radioligand) (P41145 whole entry): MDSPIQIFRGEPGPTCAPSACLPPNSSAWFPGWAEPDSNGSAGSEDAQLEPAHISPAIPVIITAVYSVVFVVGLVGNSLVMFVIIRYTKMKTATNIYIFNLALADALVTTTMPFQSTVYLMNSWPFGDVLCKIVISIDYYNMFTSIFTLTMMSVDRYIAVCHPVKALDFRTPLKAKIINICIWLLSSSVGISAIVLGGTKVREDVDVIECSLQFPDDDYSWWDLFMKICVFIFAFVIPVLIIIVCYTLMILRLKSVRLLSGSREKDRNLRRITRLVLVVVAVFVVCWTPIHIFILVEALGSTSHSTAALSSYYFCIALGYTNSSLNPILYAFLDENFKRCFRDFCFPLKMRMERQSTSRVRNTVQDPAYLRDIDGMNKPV
Chain of D2S (h) (agonist radioligand) (P14416 1-414 isoform P14416-2): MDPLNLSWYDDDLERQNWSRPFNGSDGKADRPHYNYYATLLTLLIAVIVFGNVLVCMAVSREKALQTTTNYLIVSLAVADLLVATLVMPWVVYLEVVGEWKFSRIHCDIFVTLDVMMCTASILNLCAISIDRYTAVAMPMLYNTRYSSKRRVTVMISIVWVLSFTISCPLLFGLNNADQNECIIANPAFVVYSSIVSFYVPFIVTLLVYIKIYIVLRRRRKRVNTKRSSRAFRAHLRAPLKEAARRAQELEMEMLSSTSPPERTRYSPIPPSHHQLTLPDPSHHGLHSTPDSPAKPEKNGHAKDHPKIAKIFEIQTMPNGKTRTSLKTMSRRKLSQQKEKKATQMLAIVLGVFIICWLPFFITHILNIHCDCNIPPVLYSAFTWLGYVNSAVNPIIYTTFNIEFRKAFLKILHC
Chain of D2L (h) (antagonist radioligand) (P14416 whole entry): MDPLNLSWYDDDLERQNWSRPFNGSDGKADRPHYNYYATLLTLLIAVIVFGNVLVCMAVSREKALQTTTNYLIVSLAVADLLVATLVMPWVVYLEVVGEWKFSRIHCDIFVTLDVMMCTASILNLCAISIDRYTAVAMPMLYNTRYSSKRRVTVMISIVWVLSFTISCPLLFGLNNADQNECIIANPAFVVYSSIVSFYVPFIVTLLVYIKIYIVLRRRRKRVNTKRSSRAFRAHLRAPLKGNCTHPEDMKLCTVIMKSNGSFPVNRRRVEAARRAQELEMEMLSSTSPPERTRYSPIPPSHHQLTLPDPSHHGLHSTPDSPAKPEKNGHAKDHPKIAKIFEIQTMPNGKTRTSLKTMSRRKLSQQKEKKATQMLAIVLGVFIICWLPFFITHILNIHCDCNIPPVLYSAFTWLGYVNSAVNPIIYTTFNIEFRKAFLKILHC
Chain of CYP2D6 (P10635 whole entry): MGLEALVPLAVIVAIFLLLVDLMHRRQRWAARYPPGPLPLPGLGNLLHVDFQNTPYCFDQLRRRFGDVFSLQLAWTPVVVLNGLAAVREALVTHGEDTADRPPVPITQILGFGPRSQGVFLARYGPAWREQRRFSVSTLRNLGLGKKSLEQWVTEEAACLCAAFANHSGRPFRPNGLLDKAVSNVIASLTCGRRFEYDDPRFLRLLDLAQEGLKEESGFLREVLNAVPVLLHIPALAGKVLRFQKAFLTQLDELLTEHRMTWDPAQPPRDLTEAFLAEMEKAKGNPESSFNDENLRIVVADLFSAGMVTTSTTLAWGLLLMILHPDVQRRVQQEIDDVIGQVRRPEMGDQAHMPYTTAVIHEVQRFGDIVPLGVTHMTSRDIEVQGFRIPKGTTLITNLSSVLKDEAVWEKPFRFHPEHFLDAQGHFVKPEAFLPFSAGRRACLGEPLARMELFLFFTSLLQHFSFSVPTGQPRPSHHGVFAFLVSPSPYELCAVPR

signal, kappa (h) (KOP) (agonist radioligand) [1]	Substrates of CYP2D6 (CYP2D6)	CLint scaled (in vitro)	half-life at 1 μM (in vitro)	microsomal CLint at 1 μM (in vitro)	signal, D2L (h) (antagonist radioligand) [2]	signal, D2S (h) (agonist radioligand) [3]	Substrates of CYP3A5 (CYP3A5)	t1/2 [6]	Remaining Percentages (%) 0 min [6]	Compound	time spent holding bar, haloperidol-induced catalepsy ([8]; 30 minutes after injection)	time spent holding bar, haloperidol-induced catalepsy ([8]; 60 minutes after injection)	further results
greater than 25%	Rac, R and S	2030 mL/min/kg	2.82 min	492 µL/min/mg	0.32%	0.23%	Rac, R and S	∞	100.00%	O[C@@](CCN1CCCCC1)(c1ccccc1)C1CCCCC1 [(R)-THP, (R)-trihexyphenidyl]	significantly attenuated haloperidol-induced catalepsy	significantly attenuated haloperidol-induced catalepsy	signal, kappa (h) (KOP) (agonist radioligand) ([1]; listed as R-THP): 26.19%; CLint scaled at 1 μM ([4]; cryopreserved hepatocytes): 4420 mL/min/kg; half-life at 1 μM ([4]; cryopreserved hepatocytes): 1.47 min; hepatocyte CLint at 1 μM ([4]; cryopreserved hepatocytes): 945 µL/min/1e6 cells; CLint scaled at 1 μM ([5]; cryopreserved hepatocytes): 187 mL/min/kg; half-life at 1 μM ([5]; cryopreserved hepatocytes): 40.2 min; hepatocyte CLint at 1 μM ([5]; cryopreserved hepatocytes): 34.5 µL/min/1e6 cells; CLint scaled at 1 μM ([7]; cryopreserved hepatocytes): 55.7 mL/min/kg; half-life at 1 μM ([7]; cryopreserved hepatocytes): 63.3 min; hepatocyte CLint at 1 μM ([7]; cryopreserved hepatocytes): 21.9 µL/min/1e6 cells; Efficacy of R-THP versus Rac-THP over a dosage range ([8]; catalepsy control, FIG. 6): half a dose of R-THP controls catalepsy at least as effectively as a full dose of Rac-THP
								∞	100.00%	C[C@@H](C[N+](C)(C)C)OC(N)=O.[Cl-] [(S)-BTC, (S)-bethanechol]			Predicted Hepatic CLH ([4]; hepatocytes): 0 mL/min/kg; in vitro t1/2 ([4]; hepatocytes): ∞; Predicted Hepatic CLH ([5]; hepatocytes): 0 mL/min/kg; in vitro t1/2 ([5]; hepatocytes): ∞; antagonism at muscarinic receptors of the panel ([9]; only muscarinic receptors): greater than 50%; Predicted Hepatic CLH ([7]; hepatocytes): 0 mL/min/kg; in vitro t1/2 ([7]; hepatocytes): ∞
34.64%	Rac, R and S	1030 mL/min/kg	5.56 min	249 µL/min/mg	28.50%	35.79%	Rac, R and S			O[C@](CCN1CCCCC1)(c1ccccc1)C1CCCCC1 [(S)-THP, (S)-trihexyphenidyl]	did not significantly differ from those of haloperidol-treated rats	no significant differences	half-life (CYP3A5; human): 48.7 min; non-muscarinic receptors signaled through ([9]; greater than 25% signal): nine

— patent US12290513B2, “Therapeutic methods and compositions for treating movement disorders” (Vima Therapeutics, Inc., priority 2023, dated 2025)
